Measured values published in US7390788B2, “Peptide pharmaceutical compositions” (priority 2005, dated 2008).
Read-outs that look alike come from different tables or passages of the source.

Tests used:
[1] = test system: isolated nasal cilia; details: cited from earlier work
[2] = test system: nasal mucosa; details: in vivo; cited from earlier work
[3] = Phase I, human; cited from earlier work
[4] = 2 mg three times daily intranasally, cited from earlier work
[5] = test system: HIV; details: cited from earlier work
[6] = test system: HIV BaL; type: cell-based, HIV-1; details: dried
Protocol: Peptide was dissolved at 5 mg/ml in water, stored at ambient temperature, ca 23-27° C., and samples tested for biological activity in an HIV infection assay.
Inhibition of HIV infection is studied by utilizing an infection assay in which GHOST CD4 CCR5 cells are infected with HIV BaL, an R5 tropic isolate (Ruff, M R et al., 2001). Infection is detected via viral induction of the hGFP gene (green fluorescent protein) 48 hrs post-infection. Trays are measured in a plate reader to determine fluorescence intensity. All infections are performed by adding fresh culture medium containing approximately 1,000 infectious units of HIV-1 per well (96-well plates).
Samples were then aged by storage at ambient temperature (ca 25° C.) for 14 days prior to antiviral testing. […] In FIG. 5, only the short term 6 hour sample is stored at 4° C., while the other samples are stored at 37° C.
The peptide was dissolved in the indicated concentration of TFE in water and then shaken or agitated for 24 hrs at 37° C. The peptide was subsequently dried down, and the TFE/water mixture removed under vacuum. […] Although TFE is removed, residual traces of TFE within acceptable range for human consumption may remain.
Inhibition of HIV infection was studied by utilizing an infection assay using GHOST CD4 as previously described by Ruff, M R et al., 2001. CCR5 cells are infected with HIV BaL, an R5 tropic isolate. Infection is detected via viral induction of the hGFP gene (green fluorescent protein) about 48 hours post-infection. Trays were measured in a plate reader to determine fluorescence intensity. All infections were performed by adding fresh culture medium containing approximately 1,000 infectious units of HIV-1 per well (96-well plates).

[7] = DAPTA fibril formation / aggregation in solution by EM (Example 3); type: physicochemical
Protocol: Preparation of DAPTA solutions. DAPTA was dissolved in water, and solutions maintained at various temperatures and times. To prepare fibrils, DAPTA was prepared at 10 mgs/mL in water and stored overnight at 4° C.
Determining fibril formation.
In solution, DAPTA can be shown to form ordered aggregates by EM, FTIR, and CD and dye binding. Aggregation is promoted by concentration, increased ionic strength, and reduced temperature. Although the kinetics of aggregation appear to vary, from preparation to preparation, aggregation appears to be a property associated with all batches of DAPTA examined as measured by EM.
Fibrillization can be observed in solutions prepared in 0.9% saline (10 mg/mL) when stored at 4° C. in less than 1 hour. At room or ambient temperature, fibril formation can be observed within 48 hours, although there is variation from preparation to preparation. In distilled water, DAPTA solutions at 10 mg/ml readily form aggregates at 4 deg. C., within 2 hrs, and at room temperature, within 1-7 days.

[8] = test system: envelop (gp120); details: 1987 report; cited from earlier work
[9] = cited from earlier work
[10] = test system: HIV; experiment: Inhibition of HIV infectivity in vitro by stored DAPTA solutions; type: cell-based
Protocol: Aggregation is discovered to be associated with a loss of biological activity in vitro. Typically, the recommended protocol is to have DAPTA stored at 0.1 mM solutions in water at 4° C.
Aggregation is reduced in the presence of trifluoroethanol (TFE). TFE was selected because of its property of reducing certain types of protein-protein interactions. DAPTA was dissolved in either distilled water, or solutions containing between 60% and 100% TFE. Aggregation was evaluated by assaying inhibition of HIV infectivity, in vitro. […] Also, TFE is capable of disassociating preformed aggregates of DAPTA. Aggregates of DAPTA, formed in distilled water were disrupted by addition of TFE to 80%, as measured by EM.

[11] = 6 mg/day for 12 weeks; cited from earlier work
[12] = patients with moderate neuro-psychological impairment; cited from earlier work
[13] = subcutaneously, cited from earlier work

## benzalkonium chloride [BAC]
[1]
  Ciliotoxicity: ciliotoxic
[2]
  Damage to the nasal mucosa: no significant damage
  Mucosal ciliary clearance after application: slight prolongation
  Nasal mucosal function: no detectable effect
  Saccharine transport time or indicators of proinflammatory effects: did not alter

## D-ala^1-peptide T-amide [DAPTA]
[3]
  Toxicity: complete lack of toxicity
[4]; at least four months of treatment
  Neuropsychological performance vs placebo: no difference
[4]
  Neuropsychological improvement after adjustment for baseline CD4 count: greater improvement (p=0.07)
[5]; blind NIMH analysis
  Virus levels in stored frozen plasma: significant (p<0.04) treatment effect
[5]; more cognitively impaired patients
  Clinical benefits versus placebo: significant clinical benefits versus placebo
[6]; 0.1 nM DAPTA, TFE Concentration 40 %, shaken 24 hrs at 37° C., reconstituted in water, stored about 3 days
  Percent Reduction in HIV Infection: 0 ± 2%
[6]; 0.1 nM DAPTA, TFE Concentration 60 %, shaken 24 hrs at 37° C., reconstituted in water, stored about 3 days
  Percent Reduction in HIV Infection: 20 ± 4%
[6]; 0.1 nM DAPTA, TFE Concentration 100 %, shaken 24 hrs at 37° C., reconstituted in water, stored about 3 days
  Percent Reduction in HIV Infection: 98 ± 3%
[6]; 80% TFE, shaken 12 hrs at 37 degrees Celsius, in water about three days
  Percent Reduction in HIV Infection: 70 ± 4%
[6]; 80% TFE, shaken 48 hrs at 37 degrees Celsius, in water about three days
  Percent Reduction in HIV Infection: 100 ± 3%
[6]; 80% TFE, shaken about 24 hours at 37 ° C., in water about three days
  Percent Reduction in HIV Infection: 100 ± 5%
[6]; 80% TFE, shaken about 24 hours at Room Temp., in water about three days
  Percent Reduction in HIV Infection: 70 ± 6%
[7]; 0.9% saline, 10 mg/mL, 4° C.
  Time until fibrillization can be observed: less than 1 hour
[7]; 0.9% saline, 10 mg/mL, room or ambient temperature
  Time until fibril formation can be observed: ≤ 48 h
[7]; aggregates formed in distilled water, TFE added to 80%
  Effect of TFE on preformed aggregates, by EM: disrupted
[7]; distilled water, 10 mg/ml, 4 deg. C.
  Time until aggregates form: ≤ 2 h
[8]
  Concentration that blocks envelop (gp120) binding and inhibits viral infectivity: 10 pM
[9]; high dose (15 mg daily)
  Patients with improved neuro-psychological performance: 4/5
[9]; low dose (1.5 mg daily)
  Patients with improved neuro-psychological performance: 1/4
[10]; 0.1 mM solutions in water at 4° C.
  Storage time to substantial loss of activity (HIV uptake inhibition in vitro): about 6 weeks
[10]; stored in TFE between 60% and 100% vs water
  Activity retained on storage (inhibition of HIV infectivity in vitro): retained more activity
[11]
  Treatment of painful peripheral neuropathy vs placebo: no statistically significant differences
[12]
  Cognitive and neuromotor function compared with controls: improved
[13]; 3 to 70 weeks
  Adverse drug effects: No adverse drug effects were noted
[13]; initial dose 10 mg daily, nine individuals
  Lower limb pain: complete or subjectively significant resolution of lower limb pain
